Entries after “also recorded” stand apart in the source; their conditions may differ.
System: IFN+CD8+ T cells
Test: GF mice inoculated with human faecal samples or mouse B5 caecal contents, with or without antibiotics
Type: in vivo
Conditions: antibiotics via drinking water or chloroform-treated caecal contents
From the text: Next, it was investigated whether the human gut microbiota contained microbes which were able to induce IFN+CD8+ T cells (FIG. 4). Stool samples were collected from six healthy human volunteers (A˜F) (FIG. 5). The samples were individually administered orally into germ free […] mice kept in sterile isolators (five or six mice per group). Four weeks after oral inoculation of stool samples, mice were sacrificed, and small intestine and colons were harvested and investigated for IFN+CD8+ T-cells by FACS.
The mice were then orally administrated drinking water with or without Ampicillin, Metronidazole, Streptomycin or Tylosin (five mice per group) (FIG. 10). Alternatively, cecal contents of mouse B #5 were treated with 3% chloroform and orally inoculated into another five germ-free mice (‘B #5+Chrolo’). […] B #5 microbiota.
Human faecal samples were collected at the RIKEN institute and Keio University according to the study protocol approved by the institutional review board. Informed consent was obtained from each subject. Faecal samples and mouse B5 caecal contents were suspended in equal volume (w/v) of PBS containing 20% glycerol/PBS, snap-frozen in liquid nitrogen, and stored at −80° C. until use. The frozen stocks were thawed, suspended in TS broth, filtered through a 100 µm cell strainer, and orally inoculated into GF mice (approximately 5-60 mg/250 μL, per mouse). After 24 hours of inoculation, some mice were treated with ampicillin (1 g/L), metronidazole (1 g/L), tylosin (0.5 g/L) or streptomycin (0.5 g/L) via the drinking water. For chloroform treatment of B5 caecal contents, the caecal content suspension was mixed with chloroform (final concentration 3%) and incubated in a shaking water bath for 60 min followed by evaporation of chloroform via bubbling with N2 gas for 30 min. To isolate IFN+[…] T cell-inducing bacterial strains, caecal contents from GF+B5-Amp2 and GF+B5-Amp3 mice were serially dilated with PBS and seeded onto nonselective and selective agar plates (GAM, CM0151, and BBE). After culture under anaerobic conditions (80% N2, 10% H2, 10% CO2) in an anaerobic chamber (Coy Laboratory Products) at 37° C. for 2 to 4 days, individual colonies were picked, and the 16S rRNA gene region was amplified with universal primers (27F: 5′-[…]-3′ (SEQ ID NO:12), 1492R: 5′-[…]-3′ (SEQ ID NO:13)) and sequenced. Individual isolates in the culture collection were grouped as “strains” if their 16S rRNA gene sequences had 100% identity. The resulting strain sequences were compared to those in the RDP database and to OTUs observed in caecal samples from GF+B5−Amp2 and GF+B5−Amp3 to determine closely related species or strains and their corresponding OTUs. To prepare a bacterial mixture, bacterial strains were individually grown in GAM, CM0149, or EG both to confluence and equal volumes of media were mixed. […] The mixture of isolates was orally administered to GF mice (approximately 1-2×10^8 CFU of each strain in 250 μL medium per mouse). All mice receiving a given mixture of bacterial strains were maintained in a single gnotobiotic isolator. For administration of heat-killed bacteria, 11 strains cultured individually for 3 days were mixed, washed with autoclaved water, heat-killed at 121° C. for 30 min, and given to GF mice via the drinking water (2-10×10^7 equivalent CFU of each strain per 1 mL) for 4 weeks. C57BL/6 GF mice (6-12 weeks old) were used and analysed 3-4 weeks after bacterial colonization unless otherwise indicated.

Row | SMILES | effect of treatment on IFN+CD8+ T cell induction by mouse B5 microbiota | effect of treatment on IFN+CD8+ T cell induction by mouse B5 microbiota (listed as Chlo) | effect of treatment on IFN+CD8+ T cell induction by mouse B5 microbiota (listed as Amp)
1 | Cc1ncc([N+](=O)[O-])n1CCO [MNZ, metronidazole] | substantial decrease in IFN+CD8 T cell induction | – | –
2 | ClC(Cl)Cl [chloroform] | reduced the induction capability; also recorded: abrogated induction altogether | abrogated it altogether | –
3 | CC1(C)S[C@@H]2[C@H](NC(=O)[C@H](N)c3ccccc3)C(=O)N2[C@H]1C(=O)O [Ampicillin, ampicillin] | enhanced induction | – | enhanced the induction of IFN+CD8 T cells; also recorded: enhanced the observed induction
4 | CC[C@H]1OC(=O)C[C@@H](O)[C@H](C)[C@@H](O[C@@H]2O[C@H](C)[C@@H](O[C@H]3C[C@@](C)(O)[C@@H](O)[C@H](C)O3)[C@H](N(C)C)[C@H]2O)[C@@H](CC=O)C[C@@H](C)C(=O)/C=C/C(C)=C/[C@@H]1CO[C@@H]1O[C@H](C)[C@@H](O)[C@@H](OC)[C@H]1OC [Tyl, tylosin] | substantial decrease in IFN+CD8 T cell induction | – | –
5 | [H]/N=C(/N)N[C@H]1[C@H](O)[C@@H](O)[C@H](O[C@@H]2O[C@@H](C)[C@](O)(C=O)[C@H]2O[C@@H]2O[C@@H](CO)[C@H](O)[C@@H](O)[C@@H]2NC)[C@@H](N/C(N)=N\[H])[C@@H]1O [STM, streptomycin] | substantial decrease in IFN+CD8 T cell induction | – | –

Source: US11723934B2, “Compositions and methods for the induction of CD8+ T-cells” (Keio University, priority 2018, dated 2023)
